Tests used:
[1] = test system: gout patients with sUA greater than 8 mg/dL; assay: Example 6: open-label clinical pharmacology study, combination with febuxostat; details: for increases in serum creatinine (Grade): human, in vivo
Method: Also provided herein in certain embodiments is an open-label, clinical pharmacology study including 2 cohorts of gout patients with sUA greater than 8 mg/dL on no urate-lowering therapy. In some embodiments, patients received colchicine beginning one week prior to baseline and continuing for 5 weeks for flare prophylaxis. In other embodiments, the first cohort of patients in the study consisted of gout patients with a median baseline sUA of 9.2 mg/dL who were administered 40 mg febuxostat for the first week, 40 mg febuxostat in combination with 400 mg of a compound of formula I for the second week, and then 40 mg febuxostat in combination with 600 mg of a compound of formula I for the third week. […] In some embodiments, less than 40 mg, greater than 40 mg, less than 80 mg, greater than 80 mg, or any suitable amount of febuxostat was administered.
This 21-patient, open-label, clinical pharmacology study included 2 cohorts of gout patients with sUA greater than 8 mg/dL on no urate-lowering therapy. All patients received colchicine beginning one week prior to baseline and continuing for 5 weeks for flare prophylaxis.

patients with gout = assay: Phase II gout dose response study, Lesinurad versus placebo (incidence of gout flares); assay type: in vivo, human
Method: Purpose: To compare the proportion of subjects whose serum urate (sUA) level is <6.0 mg/dL after 28 days of dosing by treatment group.
Official Title: Randomized, Double-Blind, Multicenter, Placebo-Controlled, Safety and Efficacy Study of Lesinurad Versus Placebo in the Treatment of Hyperuricemia in Patients With Gout
Experimental Dosage Form: 200 mg capsule of Lesinurad, with appropriate pharmaceutically acceptable excipients
Primary Outcome Measures: Compare the proportion of subjects whose serum urate (sUA) level is <6.0 mg/dL after 28 days of dosing by treatment group.
Secondary Outcome Measures: • Evaluate the proportion of subjects with sUA levels <6.0 mg/dL at each weekly study visit. • Evaluate absolute and percent reduction from baseline in sUA levels at each weekly study visit. • Evaluate the percent change in 24-hr urine urate level (excretion) from baseline to Day 28. • Evaluate the incidence of gout flares. • Evaluate the safety and tolerability of Lesinurad in subjects with gout.
Inclusion Criteria: • Male or post-menopausal or surgically sterile female. • Hyperuricemic (i.e., screening sUA ≧8 mg/dL). • Meets criteria for the diagnosis of gout as per the American Rheumatism Association (ARA) Criteria for the Classification of Acute Arthritis of Primary Gout (see Appendix B). • Willing and able to give informed consent and adhere to visit/protocol schedules (informed consent must be given before the first study procedure is performed).
Results: Incidence of gout flares are presented in Table 2 below indicating the majority of flares occurred in the first week when patients were receiving 200 mg QD (6/10 total flares on drug). Few additional flares occurred as dose increased, even with greater decrease in sUA. Duration of flares is shorter at higher doses, the opposite of what would be expected with greater reduction in sUA.

Patients [2] = assay: Example 4 A: allopurinol 300 mg QD for 1 week followed by compound of Formula I, serum uric acid; assay type: in vivo, human
Method: A: Patients received allopurinol 300 mg QD for 1 week followed by a compound of Formula I. A compound of Formula I (200 mg) reduced serum uric acid levels 9% beyond the reduction observed for allopurinol alone. Titration up to 400 mg of a compound of Formula I provided further reduction of serum uric acid levels by 6%. The combination of a compound of Formula I (400 mg) and allopurinol provided 100% response (i.e., sUA <6 mg/dL) and an 80% sUA reduction below 5 mg/dL. These responses are illustrated in FIG. 6.

[3] = test system: gout patients with sUA greater than 8 mg/dL; assay: Example 7: open-label clinical pharmacology study, combination with allopurinol; assay type: in vivo, human
Method: This 20-patient, open-label clinical pharmacology study included 2 cohorts of gout patients with sUA greater than 8 mg/dL on no urate-lowering therapy who began colchicine dosing one week prior to baseline and continued for 5 weeks. […] Elevations in CK and rhabdomyolysis are known side effects of colchicine.

[4] = test system: gout patients with elevated uric acid levels; details: for serious adverse events or deaths: Phase 2b study, 28 days
Method: In some embodiments, for patients randomized to receive 400 mg a compound of formula I and 600 mg of a compound of formula I, a daily dose of compound of formula I was escalated weekly in increments of 200 mg/day.

Patients [5] = details: Allopurinol Alone
Method: B: Patients received allopurinol alone for one week. For the second week, Panel 1 received a compound of Formula I (400 mg) and Panel 2 received a compound of Formula I (600 mg) in combination with allopurinol 300 mg.

gout patients = details: controlled trials; cited from earlier work
[6] = test system: individuals treated with the drug; details: in vivo; cited from earlier work
IL-1 = IL-1 release/production after stimulation (FIG. 1, FIG. 3)
TNF-α = TNF-α production (FIG. 2); details: FIG. 2, 6 hour time point
[7] = test system: monosodium urate crystal-induced inflammatory response; assay: rat air pouch model of crystal-induced arthropathy; assay type: in vivo, Sprague-Dawley rats; details: PO 10, 30, 100 mg/kg; 150 mg MSU; FIGS. 4 and 5
Method: • 1. […] NaOH was added as required to maintain pH between 8-9. The solution was filtered and incubated at ambient with slow stirring continuously for 24 hours. • b. Crystals were washed, dried and sterilized by autoclaving. • c. Crystals were suspended in sterile saline at 0.67 mg/ml, 2.67 mg/ml and 10 mg/ml just prior to use. • 2. 110 Sprague-Dawley rats (male, 160-180 g) were obtained. Following quarantine, rats were accepted for the Study if no signs of clinical distress were noted during the 3-day quarantine period. The rats were maintained on certified laboratory diet and water ad libitum. • 3. The rats were ear-notched for individual identification. • 4. The rat weights were recorded. • 5. […] Exudates volume was measured and recorded for each animal. • a. […] Plasma extravasation was measured by optical absorbance at 620 nm for each exudate sample. • 14. […] Mean cell counts and standard deviations were determined for each group. • b. Mean optical absorbance measurements and standard deviations were determined for each group. • c. Group means and standard deviations for TNF-alpha and IL-1 were determined for each group. • d. Statistical significance of treatments on mean cell counts, mean optical absorbance measurements and mean cytokine measurements were determined by comparison of means for treatment and positive control groups with vehicle group.

[8] = test system: individuals treated with probenecid; details: in vivo; cited from earlier work
[9] = Cohort 1, febuxostat 40 mg alone
[10] = Cohort 2, febuxostat 80 mg alone
[11] = Cohort 1, allopurinol 300 mg alone
[12] = Cohort 2, allopurinol 300 mg alone
[13] = Placebo qd + allopurinol, sUA <6 mg/dL after 4 weeks

For `COc1cc2c(c(OC)c1OC)-c1ccc(OC)c(=O)cc1[C@@H](NC(C)=O)CC2` [colchicine], the “increases in serum creatinine (Grade)” value [1] was “one Grade 2 serum creatinine increase”.
With `O=C(O)CSc1nnc(Br)n1-c1ccc(C2CC2)c2ccccc12` [Formula I, 2-(5-bromo-4-(4-cyclopropylnaphthalen-1-yl)-4H-1,2,4-triazol-3-ylthio)acetic acid] the “% of patients with Flares by Dose at Time of Flare” value (from here on “% of patients with Flares by Dose”) (patients with gout; 200 mg at time of flare) was 6% (6/96), the “Mean Duration of Flares (by Dose at Time of Flare)” value (patients with gout; 200 mg at time of flare) was 4 days and the “% of patients with Flares by Dose” value (patients with gout; 400 mg at time of flare) was 2% (1/65). The “Mean Duration of Flares (by Dose at Time of Flare)” value (patients with gout; 400 mg at time of flare) was 2 days, the “% of patients with Flares by Dose” value (patients with gout; 600 mg at time of flare) was 9% (3/32) and the “Mean Duration of Flares (by Dose at Time of Flare)” value (patients with gout; 600 mg at time of flare) was 1.7 days. For the same compound, the “Mean Duration of Flares” value (patients with gout; Randomized Dose Group 200 mg) was 4 days, the “% Patients with Flares” value (patients with gout; Randomized Dose Group 200 mg qd for 28 days) was 6% and the “Mean Duration of Flares” value (patients with gout; Randomized Dose Group 400 mg) was 3.8 days. The “% Patients with Flares” value (patients with gout; Randomized Dose Group 400 mg (200 mg 7 days, 400 mg 21 days)) was 12%, the “Mean Duration of Flares” value (patients with gout; Randomized Dose Group 600 mg) was 1.5 days and the “% Patients with Flares” value (patients with gout; Randomized Dose Group 600 mg (200 mg 7 days, 400 mg 7 days, 600 mg 14 days)) was 13%. The “reduction of serum uric acid levels beyond the reduction observed for allopurinol alone” value (Patients [2]; Formula I 200 mg after allopurinol 300 mg QD for 1 week) was 9%, the “further reduction of serum uric acid levels” value (Patients [2]; titration up to 400 mg) was 6% and the “additional sUA reduction compared to febuxostat alone” value ([1]; addition of 600 mg to 40 mg febuxostat) was 39%. For the same compound, the “additional sUA reduction compared to febuxostat alone” value ([1]; addition of 600 mg to 80 mg febuxostat) was 51%, the “increases in serum creatinine (Grade)” value [1] was “no Grade 2 or higher increases” and the “Percent patients <5 mg/dL” value ([3]; Cohort 1, 400 mg alone) was 0%. The “Percent sUA change at trough (median, from baseline)” value (“Percent sUA change at trough” below) ([3]; Cohort 1, 400 mg alone) was −28%, the “Percent sUA change intraday (median, from baseline)” value (“Percent sUA change intraday” for short) ([3]; Cohort 1, 400 mg alone) was −44% and the “Response rate (<6 mg/dL)” value ([3]; Cohort 1, 400 mg alone) was 20%. For the same compound, the “Percent patients <5 mg/dL” value ([3]; Cohort 2, 600 mg alone) was 33%, the “Percent sUA change at trough” value ([3]; Cohort 2, 600 mg alone) was −39% and the “Percent sUA change intraday” value ([3]; Cohort 2, 600 mg alone) was −54%. The “Response rate (<6 mg/dL)” value ([3]; Cohort 2, 600 mg alone, listed as 2-(5-bromo-4-(4-cyclopropylnaphthalen-1-yl)-4H-1,2,4-triazol-3-ylthio)acetate) was 67%, the “serious adverse events or discontinuations considered possibly related” value ([3]; human, in vivo) was “no serious adverse events or discontinuations” and the “serious adverse events or deaths” value [4] was “no serious adverse events or deaths”.
In the case of `Cc1nc(-c2ccc(OCC(C)C)c(C#N)c2)sc1C(=O)O` [febuxostat], the “Response rate (<6 mg/dL)” value ([1]; Cohort 1 (median baseline 9.2 mg/dL), febuxostat 40 mg alone) is reported as 67%, the “Response rate (<6 mg/dL)” value ([1]; Cohort 1 (median baseline 9.2 mg/dL), febuxostat 40 mg alone, listed as Febuxostat) is reported as 67% and the “Percent patients <4 mg/dL” value [1, 9] is reported as 0%. For the same compound, the “Percent sUA change at trough” value [1, 9] was −35%, the “Percent sUA change intraday” value [1, 9] was −44% and the “Response rate (<6 mg/dL)” value ([1]; Cohort 2 (median baseline […]), febuxostat 80 mg alone) was 56%. For the same compound, the “Response rate (<6 mg/dL)” value ([1]; Cohort 2 (median baseline […]), febuxostat 80 mg alone, listed as Febuxostat) was 56%, the “Percent patients <4 mg/dL” value [1, 10] was 0% and the “Percent sUA change at trough” value [1, 10] was −47%. For the same compound, the “Percent sUA change intraday” value [1, 10] was −52% and the “patients achieving sUA levels below 4 mg/dL or below 3 mg/dL” value ([1]; either dose of febuxostat alone) was “No patient”.
With `Oc1ncnc2[nH]ncc12` [allopurinol] the “% Patients <4 mg/dL” value (Patients [5]) was 0%, the “% Patients <5 mg/dL” value (Patients [5]) was 9% and the “Response: % Patients <6 mg/dL” value (Patients [5]) was 63%. The “sUA Mean % Reduction” value (Patients [5]) was 32%, the “patients achieving target sUA levels below 6 mg/dL” value ([3]; 300 mg allopurinol alone) was 20% and the “Response rate (<6 mg/dL)” value ([3]; Cohort 1 (median baseline 9.8 mg/dL), allopurinol 300 mg alone) was 10%. The “Percent patients <5 mg/dL” value [3, 11] was 5%, the “Percent sUA change at trough” value [3, 11] was −31% and the “Percent sUA change intraday” value [3, 11] was −38%. The “Response rate (<6 mg/dL)” value ([3]; Cohort 2 (median baseline 9.1 mg/dL), allopurinol 300 mg alone) was 30%, the “Percent patients <5 mg/dL” value [3, 12] was 5% and the “Percent sUA change at trough” value [3, 12] was −27%. The “Percent sUA change intraday” value [3, 12] was −35%, the “serious adverse events or deaths” value [4] was “fatal myocardial infarction” and the “Mean Change in Serum Urate at Week 4 vs. Baseline on Allopurinol Alone” value ([4]; Placebo qd + allopurinol) was “+3%”. The “Response Rate (ITT Analysis)” value [4, 13] was 25%, the “Response Rate (LOCF Analysis)” value [4, 13] was 29% and the “patients who discontinued treatment due to an adverse event” value ([4]; human, in vivo) was “three”. The “gout patients responding adequately (sUA less than 6 mg/dL)” value (gout patients) was 30-40% and the “incidence of side effects, of all individuals treated” value [6] was 20%.
For rilonacept, the IL-1 production (IL-1; FIG. 3) was “does not reduce” and the “production of TNF-α” value (TNF-α) was “inhibits”.
In the case of `O=C([O-])CSc1nnc(Br)n1-c1ccc(C2CC2)c2ccccc12.[Na+]` [compound 1, 2-(5-Bromo-4-(4-cyclopropylnaphthalen-1-yl)-4H-1,2,4-triazol-3-ylthio)acetate sodium salt], the “blocks IL-1 release, time after stimulation” value (IL-1; FIG. 1) is reported as no more than 1 h and the “monosodium urate crystal-induced inflammatory response” value [7] is reported as “blocked”.
In the case of `CCCN(CCC)S(=O)(=O)c1ccc(C(=O)O)cc1` [probenecid], the individuals developing intolerance [8] is listed as “one-third” and the “individuals failing to achieve reduction of serum uric acid levels <6 mg/dL” value [8] is listed as 25-50%.

From US9216179B2, “Treatment of gout and hyperuricemia” (ARDEA BIOSCIENCES, INC., priority 2010, dated 2015)
